Like-named read-outs stand apart in the source and are kept apart here.
Assays:
[1] = system: Pyricularia oryzae Carvara KA301; assay type: in vivo; conditions: for RCV (Fungicidal Activities, C.V.): Rice Blast
[2] = system: Botrytis cinerae; assay: Fungicidal activity against Cucumber Gray Mold Rot (CGM) disease; assay type: in vivo; conditions: for CGM (Fungicidal Activities, C.V.): Cucumber Gray Mold Rot, concentration 50 ppm; for Fungicidal Activities CGM (C.V.): 50 ppm
[3] = system: Phytophthora infestans; assay type: in vivo; conditions: for TLB (Fungicidal Activities, C.V.): Tomato Late Blight
[4] = system: Puccinia recondita; assay: Fungicidal activity against Wheat Leaf Rust (WLR) disease; assay type: in vivo; conditions: for WLR (Fungicidal Activities, C.V.): Wheat Leaf Rust
[5] = system: Erysiphae graminis; assay: Fungicidal activity against Barley Powdery Mildew (BPM) disease; assay type: in vivo; conditions: for BPM (Fungicidal Activities, C.V.): Barley Powdery Mildew
[6] = system: Rhizoctonia solani AG-1; assay: Fungicidal activity against Rice Sheath Blight (RSB) disease; conditions: for RSB (Fungicidal Activities, C.V.): Rice Sheath Blight

Compound	RCV (Fungicidal Activities, C.V.) ([1]; concentration 2 ppm) [%]	RCV (Fungicidal Activities, C.V.) ([1]; concentration 50 ppm) [%]	CGM (Fungicidal Activities, C.V.) [2] [%]	TLB (Fungicidal Activities, C.V.) ([3]; concentration 50 ppm) [%]	WLR (Fungicidal Activities, C.V.) ([4]; concentration 2 ppm) [%]	WLR (Fungicidal Activities, C.V.) ([4]; concentration 50 ppm) [%]	BPM (Fungicidal Activities, C.V.) ([5]; concentration 2 ppm) [%]	BPM (Fungicidal Activities, C.V.) ([5]; concentration 50 ppm) [%]	RSB (Fungicidal Activities, C.V.) ([6]; concentration 50 ppm) [%]	RCV (Fungicidal Activities, C.V.) ([1]; concentration 10 ppm) [%]	WLR (Fungicidal Activities, C.V.) ([4]; concentration 10 ppm) [%]	BPM (Fungicidal Activities, C.V.) ([5]; concentration 10 ppm) [%]	other results
CON=C(C(=O)OC)c1ccccc1CON=C(C)c1cccc(OC(F)=Cc2ccc(OC)cc2)c1 [Compound 72]	100	98	0	66	98	100	100	100	65				TLB (Fungicidal Activities, C.V.) ([3]; concentration 2 ppm): 0%; RSB (Fungicidal Activities, C.V.) ([6]; concentration 2 ppm): 25%
COC=C(C(=O)OC)c1ccccc1CON=C(C)c1cccc(OC(F)=Cc2ccc3ccccc3c2)c1 [Compound 56]	25	95	5	57	95	100	100	100	70	80	100	100	
COC=C(C(=O)OC)c1ccccc1CON=C(C)c1cccc(OC(F)=C(c2cccc(OC)c2)C(F)(F)F)c1 [Compound 157]	33	93	68	6	98	100	97	100	60	76	100	99	
CON=C(C(=O)OC)c1ccccc1CON=C(C)c1cccc(OC(F)=C(c2ccc(C)cc2)C(F)(F)F)c1 [Compound 175]													Fungicidal Activities RCV (C.V.) ([1]; 2 ppm): 76%; Fungicidal Activities RCV (C.V.) ([1]; 50 ppm): 96%; Fungicidal Activities CGM (C.V.) [2]: 12%; Fungicidal Activities TLB (C.V.) ([3]; 50 ppm): 0%; Fungicidal Activities WLR (C.V.) ([4]; 2 ppm): 86%; Fungicidal Activities WLR (C.V.) ([4]; 50 ppm): 100%; Fungicidal Activities BPM (C.V.) ([5]; 2 ppm): 83%; Fungicidal Activities BPM (C.V.) ([5]; 50 ppm): 100%; Fungicidal Activities RSB (C.V.) ([6]; 2 ppm): 10%; Fungicidal Activities RSB (C.V.) ([6]; 50 ppm): 65%
COC=C(C(=O)OC)c1ccccc1CON=Cc1cccc(OC(F)=C(c2ccc(C)cc2)C(F)(F)F)c1 [Compound 105]		0	0	0	86	100	98	100	20		98	99	
CCc1ccc(C(=C(F)Oc2cccc(C(C)=NOCc3ccccc3C(=NOC)C(=O)NC)c2)C(F)(F)F)cc1 [Compound 195]													Fungicidal Activities RCV (C.V.) ([1]; 2 ppm): 100%; Fungicidal Activities RCV (C.V.) ([1]; 50 ppm): 96%; Fungicidal Activities CGM (C.V.) [2]: 82%; Fungicidal Activities TLB (C.V.) ([3]; 2 ppm): 25%; Fungicidal Activities TLB (C.V.) ([3]; 50 ppm): 50%; Fungicidal Activities WLR (C.V.) ([4]; 2 ppm): 98%; Fungicidal Activities WLR (C.V.) ([4]; 50 ppm): 100%; Fungicidal Activities BPM (C.V.) ([5]; 2 ppm): 99%; Fungicidal Activities BPM (C.V.) ([5]; 50 ppm): 100%; Fungicidal Activities RSB (C.V.) ([6]; 2 ppm): 25%; Fungicidal Activities RSB (C.V.) ([6]; 50 ppm): 80%
CON=C(C(=O)OC)c1ccccc1CON=C(C)c1cccc(OC(F)=Cc2ccc(C)cc2)c1 [Compound 66]	100	100	75	0	99	100	100	100	100	100	100	100	RSB (Fungicidal Activities, C.V.) ([6]; concentration 2 ppm): 20%; RSB (Fungicidal Activities, C.V.) ([6]; concentration 10 ppm): 65%

— patent US6552080B1, “Fungicidal compounds having a fluorovinyl-or fluoropropenyl-oxyphenyloxime moiety and process for the preparation thereof” (Korea Research Institute of Chemical Technology, priority 1999, dated 2003)
